# Results published in patent US20050250677A1, “Glycopeptide antibiotic derivatives” (priority 2002, published 2005).
# “Also recorded” adds a separate entry of the source. Like-named read-outs stand apart in the source and are kept apart here.
# What was measured:
# FCV = test: Feline corona virus assay in Feline Crandel kidney cells (MTS); format: cell-based
# Method: Feline Crandel kidney cells were seeded in 96-well microtiter plates at 24,000 cells/well. Then, 24 hrs later, an appropriate inoculum of FCV is added together with 5-fold dilutions of the test compounds. After 4 days, a MTS/PMS solution was added to each well. Following a 90 min incubation period at 37° C., the optical density of the wells was read at 498 nm in a microplate reader.
# murine leukemia L1210 = test: Cytostatic activity assay, L1210 cells; format: cell-based; conditions: read-out: IC50 L1210 (compound concentration required to inhibit tumor cell proliferation by 50%)
# HIV-2(ROD) = test: Inhibition of HIV-2 (ROD)-induced cytopathicity (giant cell formation) in CEM cells; format: cell-based
# Method: (§1) A variety of glycopeptide antibiotic derivatives of vancomycin, eremomycin and teicoplanin including their aglycon derivatives were evaluated for their inhibitory activity against HIV-1 (IIIB) and HIV-2(ROD) in CEM cell cultures.
# [1] = system: human lymphocyte Molt4/clone 8; test: Cytostatic activity assay, Molt4/clone 8 cells; format: cell-based; conditions: read-out: IC50 Molt4/C8 (compound concentration required to inhibit tumor cell proliferation by 50%)
# [2] = system: SARS virus (strain Frankfurt-1); test: microbe, parasite or virus in culture; format: cell-based, human corona (SARS) virus
# HIV-1 (IIIB) = test: Inhibition of HIV-1 (IIIB)-induced cytopathicity (giant cell formation) in CEM cells; format: cell-based
# Method: as §1
# human lymphocyte CEM = test: Cytostatic activity assay, CEM cells; format: cell-based; conditions: read-out: IC50 CEM (compound concentration required to inhibit tumor cell proliferation by 50%)
# Vero cells = conditions: read-out: CC50 Vero
# CMV = test: Anti-CMV assay: virus-induced cytopathicity in HEL cell cultures
# HEL cells [3] = system: HEL cells
# HEL cells [4] = conditions: read-out: CC50 (HEL), HEL cells
# VZV (wild-type strains) = test: Anti-VZV assay (wild-type strains): virus-induced cytopathicity in HEL cell cultures; format: cell-based, varicella-zoster virus; conditions: HEL cell cultures
# [5] = FCV in FCK cells, read-out: EC50 FCV
# [6] = read-out: EC50 HIV-2 (concentration required to inhibit HIV-induced giant cell formation by 50%), HIV-2, CEM cell cultures
# [7] = SARS virus in Vero cells, read-out: EC50 SARS virus
# [8] = read-out: EC50 HIV-1 (concentration required to inhibit HIV-induced giant cell formation by 50%), HIV-1, CEM cell cultures
# [9] = HIV-1 (IIIB), CEM cell cultures, read-out: EC50 against HIV-1
# [10] = VZV strain OKA, read-out: EC50 VZV (OKA)
# [11] = VZV strain YS, read-out: EC50 VZV (YS)
SMILES,EC50 (FCV; [5]),"CC50 (FCK cells; read-out: CC50 FCK, FCK cells)",IC50 (murine leukemia L1210),EC50 (HIV-2(ROD); [6]),IC50 [1],"EC50 [2, 7]",EC50 (HIV-1 (IIIB); [8]),IC50 (human lymphocyte CEM),CC50 (Vero cells),further results
NC1C(=O)NC2Cc3ccc(c(Cl)c3)Oc3cc4cc(c3O)Oc3ccc(cc3Cl)C(O)C3NC(=O)C(NC(=O)C4NC(=O)C(NC2=O)c2cc(O)cc(c2)Oc2cc1ccc2O)c1ccc(O)c(c1)-c1c(O)cc(O)cc1C(C(=O)NCc1ccc(F)cc1)NC3=O (stereo not drawn) [Compound 165],11 µM,80 µM,240 ± 15 µM,30 ± 7.1 µM,≥ 250 µM,26 µM,9 ± 5.3 µM,> 250 µM,> 100 µM,
NC1C(=O)NC2Cc3ccc(c(Cl)c3)Oc3cc4cc(c3O)Oc3ccc(cc3Cl)C(O)C3NC(=O)C(NC(=O)C4NC(=O)C(NC2=O)c2cc(O)cc(c2)Oc2cc1ccc2O)c1ccc(O)c(c1)-c1c(O)cc(O)cc1C(C(=O)N(C(=O)NC1CCCCC1)C1CCCCC1)NC3=O (stereo not drawn) [Compound 167],7.7 µM,62 µM,130 ± 1 µM,10 ± 2.8 µM,132 ± 9 µM,47 µM,6 ± 2.6 µM,165 ± 34 µM,> 100 µM,
NC1Cc2ccc(c(Cl)c2)Oc2cc3cc(c2O)Oc2ccc(cc2Cl)C(O)C2NC(=O)C(NC(=O)C3NC(=O)C(c3cc(O)cc(Oc4cc(C5NC(=S)N(c6ccccc6)C5=O)ccc4O)c3)NC1=O)c1ccc(O)c(c1)-c1c(cc(O)c(CNC3C4CC5CC(C4)CC3C5)c1O)C(C(=O)O)NC2=O (stereo not drawn) [Compound 55],22 µM,,73 ± 24 µM,,≥ 250 µM,31 µM,,242 ± 11 µM,> 100 µM,"CC50 (FCK cells): > 100 µM; EC50 (HIV-2(ROD); HIV-2(ROD), CEM cell cultures, read-out: EC50 against HIV-2): 17 µM; EC50 (HIV-1 (IIIB); [9]): 13 µM"
CCCCc1ccc(CN2CCN(C(=O)C3NC(=O)C4NC(=O)C(NC(=O)C5NC(=O)C6NC(=O)C(Cc7ccc(c(Cl)c7)Oc7cc5cc(c7O)Oc5ccc(cc5Cl)C4O)NC(=O)C(N)c4ccc(O)c(c4)Oc4cc(O)cc6c4)c4ccc(O)c(c4)-c4c(O)cc(O)cc43)CC2)cc1 (stereo not drawn) [Compound 124],,17 µM,,,,15 µM,,,> 100 µM,"anti-CMV activity (CMV): anti-CMV activity; EC50 (CMV; read-out: EC50 CMV AD-169, CMV strain AD-169, HEL cell cultures): 2.4 µM; EC50 (CMV; read-out: EC50 CMV Davis, CMV strain Davis, HEL cell cultures): 3.2 µM; MTC (HEL) (HEL cells [3]; anti-CMV table): ≧5-100 μM; MTC (HEL) (HEL cells [3]; anti-VZV table): ≧5-100 μM; CC50 (HEL cells [4]; anti-CMV table): 71 µM; CC50 (HEL cells [4]; anti-VZV table): 71 µM; EC50 (VZV (wild-type strains); [10]): 0.34 µM; EC50 (VZV (wild-type strains); [11]): 0.22 µM"
CN(C)CCCNC(=O)C1NC(=O)C2NC(=O)C(NC(=O)C3NC(=O)C4NC(=O)C(Cc5ccc(c(Cl)c5)Oc5cc3cc(c5O)Oc3ccc(cc3Cl)C2O)NC(=O)C(N)c2ccc(O)c(c2)Oc2cc(O)cc4c2)c2ccc(O)c(c2)-c2c1cc(O)c(CN1CCN(Cc3ccc(-c4ccccc4)cc3)CC1)c2O (stereo not drawn) [Compound 28],> 50 µM,21 µM,318 ± 256 µM,8.5 ± 2.1 µM,> 500 µM,16 µM,3.5 ± 0.7 µM,> 500 µM,> 100 µM,MTC (HEL) (HEL cells [3]; anti-VZV table): ≧5-20 μM; CC50 (HEL cells [4]; anti-VZV table): 105 µM; EC50 (VZV (wild-type strains); [10]): 2.5 µM; EC50 (VZV (wild-type strains); [11]): 2 µM
O=C(NC1C(=O)NC2Cc3ccc(c(Cl)c3)Oc3cc4cc(c3O)Oc3ccc(cc3Cl)C(O)C3NC(=O)C(NC(=O)C4NC(=O)C(NC2=O)c2cc(O)cc(c2)Oc2cc1ccc2O)c1ccc(O)c(c1)-c1c(O)cc(O)cc1C(C(=O)O)NC3=O)C(=O)c1c[nH]c2ccccc12 (stereo not drawn) [Compound 163],2.2 µM,63 µM,,15 µM,,26 µM,10 µM,,> 100 µM,
CC(NC(=O)C1NC(=O)C2NC(=O)C(NC(=O)C3NC(=O)C4NC(=O)C(Cc5ccc(c(Cl)c5)Oc5cc3cc(c5O)Oc3ccc(cc3Cl)C2O)NC(=O)C(N)c2ccc(O)c(c2)Oc2cc(O)cc4c2)c2ccc(O)c(c2)-c2c(O)cc(O)cc21)C12CC3CC(CC(C3)C1)C2 (stereo not drawn) [Compound 160],4.5 µM,56 µM,92 ± 5 µM,7.5 ± 0.7 µM,97 ± 10 µM,27 µM,3.3 ± 1.4 µM,106 µM,> 100 µM,
COC(=O)C1NC(=O)C2NC(=O)C(NC(=O)C(N)c3cc(Oc4ccc(CC(NC(=O)OCc5ccccc5)C(=O)O)cc4Cl)c(O)c(c3)Oc3ccc(cc3Cl)C2O)c2ccc(O)c(c2)-c2c1cc(O)c(CNC1C3CC4CC(C3)CC1C4)c2O (stereo not drawn) [Compound 54],19 µM,,181 ± 4 µM,37 ± 18 µM,> 250 µM,47 µM,17 ± 3.5 µM,> 250 µM,> 100 µM,CC50 (FCK cells): > 50 µM
NCCCCCCNC(=O)C1NC(=O)C2NC(=O)C(NC(=O)C3NC(=O)C4NC(=O)C(Cc5ccc(c(Cl)c5)Oc5cc3cc(c5O)Oc3ccc(cc3Cl)C2O)NC(=O)C(N)c2ccc(O)c(c2)Oc2cc(O)cc4c2)c2ccc(O)c(c2)-c2c(O)cc(O)cc21 (stereo not drawn) [Compound 41],21 µM,> 50 µM,> 500 µM,17.5 ± 3.5 µM,> 500 µM,44 µM,15 µM,> 500 µM,> 100 µM,MTC (HEL) (HEL cells [3]; anti-VZV table): ≧20-50 μM; CC50 (HEL cells [4]; anti-VZV table): 190 µM; EC50 (VZV (wild-type strains); [10]): > 5 µM; EC50 (VZV (wild-type strains); [11]): 12 µM
COC(=O)C1NC(=O)C2NC(=O)C(NC(=O)C(NC(=O)OC(C)(C)C)c3cc(Oc4ccc(CC(NC(=O)OCc5ccccc5)C(=O)O)cc4Cl)c(O)c(c3)Oc3ccc(cc3Cl)C2O)c2ccc(O)c(c2)-c2c1cc(O)c(CNC1C3CC4CC(C3)CC1C4)c2O (stereo not drawn) [Compound 53],36 µM,,95 ± 10 µM,11 ± 5.7 µM,122 ± 13 µM,29 µM,17 ± 3.5 µM,240 ± 13 µM,> 100 µM,CC50 (FCK cells): ≥ 100 µM
CCCCc1ccc(CN2CCN(Cc3c(O)cc4c(c3O)-c3cc(ccc3O)C3NC(=O)C5NC(=O)C(CC(N)=O)NC(=O)C(NC(=O)C(CC(C)C)NC)C(O)c6ccc(c(Cl)c6)Oc6cc5cc(c6OC5OC(CO)C(O)C(O)C5OC5CC(C)(N)C(O)C(C)O5)Oc5ccc(cc5)C(OC5CC(C)(N)C(O)C(C)O5)C(NC3=O)C(=O)NC4C(=O)NC)CC2)cc1 (stereo not drawn) [Compound 5],5.4 µM,28 µM,24 ± 0.4 µM,> 10 µM,17 ± 3 µM,13 µM,,40 ± 4 µM,54 µM,activity against FCV (FCV): active; also recorded: pronounced activity; EC50 (HIV-1 (IIIB); [9]): 0.43 µM
CCCCc1ccc(CN2CCN(Cc3c(O)cc4c(c3O)-c3cc(ccc3O)C3NC(=O)C5NC(=O)C(CC(N)=O)NC(=O)C(NC(=O)C(CC(C)C)NC)C(O)c6ccc(c(Cl)c6)Oc6cc5cc(c6OC5OC(CO)C(O)C(O)C5OC5CC(C)(N)C(O)C(C)O5)Oc5ccc(cc5Cl)C(O)C(NC3=O)C(=O)NC4C(=O)O)CC2)cc1 (stereo not drawn) [Compound 1],30 µM,> 50 µM,53 ± 9 µM,22 ± 3.5 µM,> 100 µM,43 µM,12 ± 3.5 µM,> 100 µM,> 100 µM,EC50 (FCV; read-out: EC50 against FCV): 30 to 43 µM; EC50 ([2]; read-out: EC50 against SARS virus): 30 to 43 µM; EC50 (HIV-1 (IIIB); [9]): 5.5 µM
NC1C(=O)NC2Cc3ccc(c(Cl)c3)Oc3cc4cc(c3O)Oc3ccc(cc3Cl)C(O)C3NC(=O)C(NC(=O)C4NC(=O)C(NC2=O)c2cc(O)cc(c2)Oc2cc1ccc2O)c1ccc(O)c(c1)-c1c(O)cc(O)cc1C(C(=O)NCC12CC4CC(CC(C4)C1)C2)NC3=O (stereo not drawn) [Compound 166],8.5 µM,49 µM,91 ± 2 µM,7 µM,112 ± 2 µM,31 µM,1.8 ± 0.58 µM,125 ± 30 µM,> 100 µM,
NC1C(=O)NC2Cc3ccc(c(Cl)c3)Oc3cc4cc(c3O)Oc3ccc(cc3Cl)C(O)C3NC(=O)C(NC(=O)C4NC(=O)C(NC2=O)c2cc(O)cc(c2)Oc2cc1ccc2O)c1ccc(O)c(c1)-c1c(O)cc(O)cc1C(C(=O)NC1CC2CCC1C2)NC3=O (stereo not drawn) [Compound 162],4.7 µM,≥ 100 µM,,11 µM,,22 µM,4.5 µM,,> 100 µM,
